Assay results as given in the NIST ThermoML archive (doi:10.1021/je800246v).
Numbers after ± are expanded uncertainties.

Assay: activity coefficient (dimensionless); of the first substance listed, at infinite dilution; xn = mol fraction of the nth substance listed
Conditions: 101 kPa, Liquid, Chromatography, x1 = 0

SMILES	activity coefficient (306.6 K)	activity coefficient (315.9 K)	activity coefficient (325.3 K)	activity coefficient (334.8 K)
CCC(C)=O [butanone] + CCCC[n+]1ccc(C)cc1.F[B-](F)(F)F	1.53 ± 0.16	1.57 ± 0.16	1.59 ± 0.17	
CCCCO [butan-1-ol] + CCCCn1cc[n+](C)c1.F[P-](F)(F)(F)(F)F		5.59 ± 0.59	4.77 ± 0.5	4.24 ± 0.45
CC(C)=O [acetone] + CCCCn1cc[n+](C)c1.F[P-](F)(F)(F)(F)F		0.707 ± 0.074	0.709 ± 0.074	0.699 ± 0.073
CCC(C)O (stereo unspecified) [butan-2-ol] + CCCCn1cc[n+](C)c1.F[P-](F)(F)(F)(F)F		4.29 ± 0.45	3.78 ± 0.4	3.37 ± 0.35
CCO [ethanol] + CCCC[n+]1ccc(C)cc1.F[B-](F)(F)F	1.7 ± 0.18	1.62 ± 0.17	1.49 ± 0.15	
CCO [ethanol] + CCCCn1cc[n+](C)c1.F[P-](F)(F)(F)(F)F		3.02 ± 0.32	2.69 ± 0.28	2.47 ± 0.26
CC(C)=O [acetone] + CCCC[n+]1ccc(C)cc1.F[B-](F)(F)F	0.995 ± 0.1	1.01 ± 0.1	1.03 ± 0.1	
CC(=O)CC(C)=O [2,4-pentanedione] + CCCCn1cc[n+](C)c1.F[P-](F)(F)(F)(F)F		1.15 ± 0.12	1.07 ± 0.11	1.03 ± 0.1
Cc1ccc(C)cc1 [1,4-dimethylbenzene] + CCCCn1cc[n+](C)c1.F[P-](F)(F)(F)(F)F		2.27 ± 0.24	2.24 ± 0.24	2.28 ± 0.24
CC(C)CO [2-methyl-1-propanol] + CCCCn1cc[n+](C)c1.F[P-](F)(F)(F)(F)F		5.03 ± 0.53	4.38 ± 0.46	3.84 ± 0.4
CCCC(C)O (stereo unspecified) [pentan-2-ol] + CCCCn1cc[n+](C)c1.F[P-](F)(F)(F)(F)F		5.66 ± 0.59	4.99 ± 0.52	4.38 ± 0.46
CCCO [propan-1-ol] + CCCCn1cc[n+](C)c1.F[P-](F)(F)(F)(F)F		4.01 ± 0.42	3.46 ± 0.36	3.18 ± 0.33
CO [methanol] + CCCCn1cc[n+](C)c1.F[P-](F)(F)(F)(F)F		2.16 ± 0.23	1.95 ± 0.2	1.81 ± 0.19
CCC(O)CC [3-pentanol] + CCCCn1cc[n+](C)c1.F[P-](F)(F)(F)(F)F		4.7 ± 0.49	4.14 ± 0.44	3.78 ± 0.4
Cc1ccccc1 [toluene] + CCCCn1cc[n+](C)c1.F[P-](F)(F)(F)(F)F		1.71 ± 0.18	1.59 ± 0.17	1.71 ± 0.18
CC(C)O [propan-2-ol] + CCCCn1cc[n+](C)c1.F[P-](F)(F)(F)(F)F		3.65 ± 0.38	3.16 ± 0.33	2.85 ± 0.3
CO [methanol] + CCCC[n+]1ccc(C)cc1.F[B-](F)(F)F	1.01 ± 0.1	0.98 ± 0.1	0.907 ± 0.093	
Cc1cccc(C)c1 [1,3-dimethylbenzene] + CCCCn1cc[n+](C)c1.F[P-](F)(F)(F)(F)F		2.38 ± 0.25	2.43 ± 0.26	2.36 ± 0.25
CC(C)CCO [3-methylbutan-1-ol] + CCCCn1cc[n+](C)c1.F[P-](F)(F)(F)(F)F		7.71 ± 0.81	6.34 ± 0.67	5.2 ± 0.55
CCC(C)=O [butanone] + CCCCn1cc[n+](C)c1.F[P-](F)(F)(F)(F)F		0.987 ± 0.1	0.99 ± 0.1	0.983 ± 0.1
Cc1ccccc1C [1,2-dimethylbenzene] + CCCCn1cc[n+](C)c1.F[P-](F)(F)(F)(F)F		2.37 ± 0.25	2.21 ± 0.23	2.2 ± 0.23
CCCCCO [pentan-1-ol] + CCCCn1cc[n+](C)c1.F[P-](F)(F)(F)(F)F		9.71 ± 1	8.01 ± 0.84	6.47 ± 0.68
